In US20090305954A1, “HISTIDINE-CONTAINING DIASTEREOMERIC PEPTIDES AND USES THEREOF” (Yeda Research and Development Co. Ltd., priority 2005, published 2009):
In brackets after ≈: the same amount, converted by molar mass. Where two headings read alike, the source gives them in different places. One block for each compound: values may come before it. Square brackets hold non-standard residues; d marks the D form. Ends that are not written are not given here. Peptide text beside a SMILES is read from it.

Assays:
[1] = tested on: CL1 human prostate carcinoma cell line; experiment: XTT proliferation (cytotoxicity) assay, CL1; assay type: cell-based
Procedure: (§1) The CL1 human prostate carcinoma (PC) cell line is an androgen-independent (AI) subclone of LNCaP cell line, which was generated by culturing androgen-dependent (AD) LNCaP cells in charcoal-stripped, […], as described (Patel et al. 2000). 22RV1 human PC cells are AI sub-clones of the AD prostatic adenocarcinoma CWR22 xenograft (Sramkoski et al. 1999). CL1 and 22RV1 (ATCC, USA) were grown in RPMI-1640 supplemented with 10% FCS (Biological Industries, Beit Haemek, Israel). PC3 and DU145 are androgen-insensitive (AI) (non-responsive), invasive human prostate cancer cell lines. NIH-3T3 mouse fibroblast cell lines (ATCC, USA) were grown in DMEM supplemented with 10% BS. Murine Lewis lung carcinoma (LLC) cell lines were also grown in DMEM medium supplemented with 10% fetal calf serum and antibiotics under the same conditions as above.
(§2) The anticancer activity of the diastereomers 1, 5 and 11-16, 36-39, 42 and 44 was examined against human CL1 prostate cancer, murine LLC (Lewis lung carcinoma), DU 145 and PC3 cell lines. The cell selectivity of the diastereomeric peptides was also studied by examining their effect on NIH-3T3 normal mouse fibroblasts cell line.
(§3) A 96-well plate (Falcon) was used for the XTT proliferation assay. Cancer cells were grown for 24 hours (day 1) in RPMI-1640 medium ([…] cells/100 μl for LLC, CL1, 22RVI, DU 145 and PC3, respectively) supplemented with 10% fetal calf serum and antibiotics, at 37° C., in humidified atmosphere at 5% CO2 and 95% air, resulting in growth medium pH of 7.4. NIH-3T3 fibroblast cells (1×10^4 cells/100 μl) were grown in DMEM medium supplemented with 10% bovine calf serum and antibiotics under the same conditions as described above for the cancerous cells. Wells in the last two rows served as blanks (medium only, for measuring the background color of the medium) and 100% survival controls (cells and medium only without treatment), respectively.
(§4) In day 2, the peptides were dissolved in sterile PBS to a concentration of 200 μM (or 500 μM). The medium in the assay wells was replaced with 100 μl serum free medium. For the assays at pH 6, the medium was initially concentrated (×5 or ×10) and then diluted with double distilled water and addition of sodium carbonate. Before reaching the correct dilution, the medium was adjusted to pH 6 and then more water was added to reach the final dilution. The cells were grown in physiological pH, and the acidic pH was used only during the 24 hours incubation with the peptides. A sign for the correct acidity was a light yellow color of the medium. In line A of the plate, 160 μl of serum free medium was added, if the initial peptide concentration was 500 μM.
(§5) Peptide solutions, 100 μl (or 40 μl) were added to each assay well in line A, such that the final concentration of the peptide was […] and the volume 200 μl. The medium in the wells was mixed with multichannel pipette 5 times and 100 μl of it were transferred to the next row of wells (line B), to give a peptide concentration of 50 μM. The double dilution of the peptides continued downstream the plate in the same manner. The plates were then incubated for 24 h.
(§6) In day 3, XTT reaction solution was prepared by adding to 100 μl aliquots of activation solution (sodium 3′-[1-(phenyl-aminocarbonyl)-3,4-tetrazolium]-bis(4-methoxy-6-nitro) benzene sulfonic acid hydrate and N-methyl dibenzopyrazine methyl sulfate; mixed in a proportion of 50:1) (protected from light and kept in −20° C.), the substrate. 50 μl of XTT reaction solution were added to each well and the plates were incubated for 2 hours (37° C. and 5% CO2+95% air. In cases the incubation was not enough for the creation of the color, it was extended for up to 24 hours). The optical density was read at wavelength of 450 nm in an ELISA plate reader. Cell viability was determined relative to the control and final results were recorded. The results were confirmed using replications in at least three independent experiments. […]

[2] = tested on: DU145 human prostate cancer cell line; experiment: XTT proliferation (cytotoxicity) assay, DU145; assay type: cell-based
Procedure: as §1, §2, §3, §4, §5, §6

[3] = Acute toxicity test in mice (intravenous); assay type: in vivo; conditions: for mortality: mice
Procedure: Acute toxicity of peptides 1, 13 and 16 was examined by intravenously injecting mice (n=3), each with one dose per day for 2 days of 0.5 ml solution containing peptides 1, 13 or 16 at 3, 9, 15, 20 and 30 mg/kg of body weight.
A week after injecting the peptides, blood samples were taken from the survived mice. […] Thus, the peptides 13 and 16 of the invention are not toxic even when administered at concentrations considerably higher than those necessary for their anticancer activity.

22RV1 human PC cells = experiment: XTT proliferation (cytotoxicity) assay, 22RV1; assay type: cell-based
Procedure: as §1, §3, §4, §5
In day 3, XTT reaction solution was prepared by adding to 100 μl aliquots of activation solution (sodium 3′-[1-(phenyl-aminocarbonyl)-3,4-tetrazolium]-bis(4-methoxy-6-nitro) benzene sulfonic acid hydrate and N-methyl dibenzopyrazine methyl sulfate; mixed in a proportion of 50:1) (protected from light and kept in −20° C.), the substrate. 50 μl of XTT reaction solution were added to each well and the plates were incubated for 2 hours (37° C. and 5% CO2+95% air. In cases the incubation was not enough for the creation of the color, it was extended for up to 24 hours). The optical density was read at wavelength of 450 nm in an ELISA plate reader. Cell viability was determined relative to the control and final results were recorded. The results were confirmed using replications in at least three independent experiments. The LC50 for each peptide was obtained from the curve of cell viability versus concentration of peptide and taken from the concentration at which cell viability was 50%. The data shown in Table 1 are for only one experiment, but representative of all replications.

[4] = tested on: PC3 human prostate cancer cell line; experiment: XTT proliferation (cytotoxicity) assay, PC3; assay type: cell-based; conditions: PC3, pH 7.4, 24 h
Procedure: as §1, §2
A 96-well plate (Falcon) was used for the XTT proliferation assay. Cancer cells were grown for 24 hours (day 1) in RPMI-1640 medium (5×10^3, 7×10^3, 1×10^4 and 7×10^3 cells/100 μl for LLC, CL1, 22RVI, DU 145 and PC3, respectively) supplemented with 10% fetal calf serum and antibiotics, at 37° C., in humidified atmosphere at 5% CO2 and 95% air, resulting in growth medium pH of 7.4. […]
In day 3, XTT reaction solution was prepared by adding to 100 μl aliquots of activation solution (sodium 3′-[1-(phenyl-aminocarbonyl)-3,4-tetrazolium]-bis(4-methoxy-6-nitro) benzene sulfonic acid hydrate and N-methyl dibenzopyrazine methyl sulfate; mixed in a proportion of 50:1) (protected from light and kept in −20° C.), the substrate. […] The optical density was read at wavelength of 450 nm in an ELISA plate reader. Cell viability was determined relative to the control and final results were recorded. […]

[5] = tested on: Murine Lewis lung carcinoma (LLC) cell line; experiment: XTT proliferation (cytotoxicity) assay, LLC; assay type: cell-based
Procedure: as §1, §2, §3, §4, §5, §6

[6] = XTT proliferation (cytotoxicity) assay, normal fibroblasts; assay type: cell-based, mouse; conditions: mouse, NIH-3T3 normal mouse fibroblasts, read-out: Lethal Concentration (LC50)
Procedure: as §1, §2, §3, §4, §5, §6

[7] = tested on: 22RV1 human PC cells xenograft; experiment: Inhibition of tumor growth in human prostate cancer xenografts, 22RV1; assay type: in vivo, nude male mice; conditions: 22RV1 xenograft, 1 mg/kg intratumorally, 9 doses
Procedure: (§7) (i) Inhibition of tumor growth in human prostate cancer xenografts. Subcutaneouse (s.c.) implantation of human PC cells in mice was done as previously described in Gavish et al. (Gavish et al. 2002). Briefly, 0.1 ml AI CL1 or 22RV1 human PC cells (5×10^6 cells) in Matrigel were inoculated s.c. into the dorsal side of five to six week-old nude male mice weighing 20-25 g (Harlen Co., Israel). Two weeks after cell implantation, when the tumors diameter reached ≧5 mm (denoted as day 1), the diastereomer 13 and its all L-amino acid analog peptide (at 1 mg/kg, 0.1 mM), or vehicle (PBS, pH=7.4) were injected intratumorally (dosing volume of 2.5 ml/kg) three times a week for a total of 9 doses. Tumor size was measured by a caliper and recorded twice a week during a period of 28 days. Mice were weighed and tumor weight (mg) was estimated by using the formula of length×width×depth×0.52 in mm^3, assuming the specific gravity to be 1. At the end of the treatment, the mice were killed, and the tumors were removed, photographed, and weighed. The animal experimentation was conducted according to the rules of the Institutional Animal Care and Use Committee.
Serum PSA levels. Four weeks after the first treatment, blood was withdrawn from the 22RV1-inoculated mice in order to determine the level of prostate specific antigen (PSA). The blood samples were taken directly to heparin containing tubes, centrifuged, and the supernatants were stored at −20° C. The CanAg PSA EIA kit (CanAg Diagnostics) was used to determine the total PSA in the mice plasma (Gavish et al., 2002). Tumor weight and PSA levels, represented as the mean±SE, were calculated from the raw data and then subjected to Student's t test. A value of P<0.05 was considered as statistically significant.

[8] = Interaction with Matrigel matrix, analysed by RP-HPLC and mass spectroscopy; assay type: in vitro ADME; conditions: mixed with Matrigel matrix for one hour
[9] = tested on: AI CL1 human PC cells xenograft; experiment: Inhibition of tumor growth in human prostate cancer xenografts, CL1; assay type: in vivo, nude male mice; conditions: CL1 xenograft, 1 mg/kg intratumorally, 9 doses
Procedure: as §7

[10] = tested on: NIH-3T3 normal mouse fibroblasts cell line; experiment: XTT proliferation (cytotoxicity) assay, normal fibroblasts; assay type: cell-based; conditions: NIH3T3, pH 7.4, 24 h
Procedure: as §1, §2, §3, §4, §5, §6

[11] = i.v., 3 mg/kg, one dose per day for 2 days
[12] = i.v., 9 mg/kg, one dose per day for 2 days
[13] = i.v., 15 mg/kg, one dose per day for 2 days
[14] = i.v., 20 mg/kg, one dose per day for 2 days

Compound: CC(C)C[C@H](NC(=O)[C@H](CC(C)C)NC(=O)[C@@H](CCCCN)NC(=O)[C@H](CC(C)C)NC(=O)[C@H](CC(C)C)NC(=O)[C@H](CCCCN)NC(=O)[C@@H](CCCCN)NC(=O)[C@@H](CC(C)C)NC(=O)[C@H](CC(C)C)NC(=O)[C@@H](CCCCN)NC(=O)[C@H](CCCCN)NC(=O)[C@H](CC(C)C)NC(=O)[C@@H](CC(C)C)NC(=O)[C@H](CCCCN)NC(=O)[C@@H](N)CC(C)C)C(N)=O [Peptide 1, reference compound] (H-LK[dL]LK[dK]L[dL][dK]KLL[dK]LL-NH2)
- Lethal Concentration (LC50) ([1]; CL1, pH 6, 24 h): 9.3 µg/mL
- Lethal Concentration (LC50) ([1]; CL1, pH 7.4, 24 h): 6.25 µg/mL
- Lethal Concentration (LC50) ([2]; DU145, pH 6, 24 h): 4.7 µg/mL
- Lethal Concentration (LC50) ([2]; DU145, pH 7.4, 24 h): 4.7 µg/mL
- mortality ([3]; concentrations considerably higher than those necessary for anticancer activity): 100%
- mortality [3, 11]: No mortality
- mortality [3, 12]: No mortality
- mortality [3, 13]: 100%
- mortality [3, 14]: 100%
- Lethal Concentration (LC50) (22RV1 human PC cells; 22RV1, pH 6, 24 h): 25 µg/mL
- Lethal Concentration (LC50) (22RV1 human PC cells; 22RV1, pH 7.4, 24 h): 12.5 µg/mL
- Lethal Concentration (LC50) [4]: 6.2 µg/mL
- Lethal Concentration (LC50) ([5]; pH 6, 24 h): 12.5 µg/mL
- Lethal Concentration (LC50) ([5]; pH 7.4, 24 h): 12.5 µg/mL
- CC50 at 24 h ([6]; NIH3T3, pH 6, 24 h): 25 µg/mL (≈ 13.9 µM)
- CC50 at 24 h ([6]; NIH3T3, pH 7.4, 24 h): 50 µg/mL (≈ 27.7 µM)

- activity preserved upon interaction with the Matrigel matrix [8]: fully inactivated
Compound: LKLLHKLLKHLLKLL-NH2 [all L-amino acid analog peptide, reference compound]
- tumor weight [7]: inactive
- tumor weight [9]: inactive

Compound: CC(C)C[C@H](NC(=O)[C@H](CC(C)C)NC(=O)[C@@H](Cc1c[nH]cn1)NC(=O)[C@H](CC(C)C)NC(=O)[C@H](CC(C)C)NC(=O)[C@H](Cc1c[nH]cn1)NC(=O)[C@@H](Cc1c[nH]cn1)NC(=O)[C@@H](CC(C)C)NC(=O)[C@H](CC(C)C)NC(=O)[C@@H](CCCCN)NC(=O)[C@H](Cc1c[nH]cn1)NC(=O)[C@H](CC(C)C)NC(=O)[C@@H](CC(C)C)NC(=O)[C@H](Cc1c[nH]cn1)NC(=O)[C@@H](N)CC(C)C)C(N)=O [Peptide 16] (H-LH[dL]LH[dK]L[dL][dH]HLL[dH]LL-NH2)
- Lethal Concentration (LC50) ([1]; CL1, pH 7.4, 24 h): 12.5 µg/mL
- active concentration lower than against NIH-3T3 ([1]; CL1 vs NIH-3T3 at the same pH): at least two-fold lower
- mortality [3, 11]: No mortality
- mortality [3, 12]: No mortality
- mortality [3, 13]: no mortality
- mortality [3, 14]: no mortality
- mortality ([3]; i.v., 30 mg/kg, one dose per day for 2 days): No mortality
- blood differential and biochemistry tests ([3]; survived mice, a week after injection): in the range of normal values
- Lethal Concentration (LC50) (22RV1 human PC cells; 22RV1, pH 6, 24 h): 12.5 µg/mL
- Lethal Concentration (LC50) ([5]; pH 7.4, 24 h): 50 µg/mL
- Lethal Concentration (LC50) [10]: 100 µg/mL
- CC50 at 24 h ([6]; NIH3T3, pH 6, 24 h): 25 µg/mL (≈ 13.5 µM)
